Laboratory results published in paper PMC6366404, “4-(3-Nitrophenyl)thiazol-2-ylhydrazone derivatives as antioxidants and selective hMAO-B inhibitors: synthesis, biological activity and computational analysis” (Journal of Enzyme Inhibition and Medicinal Chemistry, 2019).
Like-named read-outs stand apart in the source and are kept apart here.

How the values were obtained:
hMAO-B = target: T1, hMAO-B (Homo sapiens, UniProt P27338); assay: hMAO-B inhibition, IC50 determination (kynuramine fluorescence); format: biochemical; conditions: for Selectivity index (SI) for the MAO-B isoform: ratio (IC50 hMAO-A)/(IC50 hMAO-B)
T1 sequence (P27338 1-520): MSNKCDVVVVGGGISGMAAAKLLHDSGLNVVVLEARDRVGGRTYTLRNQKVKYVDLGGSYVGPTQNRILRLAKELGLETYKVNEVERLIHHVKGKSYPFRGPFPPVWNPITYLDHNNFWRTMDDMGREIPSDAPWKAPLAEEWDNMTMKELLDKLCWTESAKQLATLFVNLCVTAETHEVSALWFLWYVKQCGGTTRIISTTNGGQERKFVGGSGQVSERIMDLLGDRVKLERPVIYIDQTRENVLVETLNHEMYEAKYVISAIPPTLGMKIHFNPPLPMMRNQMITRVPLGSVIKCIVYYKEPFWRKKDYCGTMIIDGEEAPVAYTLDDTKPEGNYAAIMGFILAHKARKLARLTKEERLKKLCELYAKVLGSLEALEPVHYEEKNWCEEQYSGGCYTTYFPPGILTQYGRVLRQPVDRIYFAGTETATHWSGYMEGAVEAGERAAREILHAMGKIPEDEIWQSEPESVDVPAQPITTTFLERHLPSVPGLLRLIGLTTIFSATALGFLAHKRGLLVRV
Experimental: The procedure for the measurement of IC50 values for the inhibition of MAO has been reported. The enzyme reactions were prepared to a volume of […] in potassium phosphate buffer at pH 7.4 (100 mM, made isotonic with KCl) and contained kynuramine (50 μM) and the test inhibitors (0.003–100 µM). Stock solutions of the test inhibitors were prepared in DMSO and added to the reactions to yield 4% DMSO. The enzyme reactions were initiated with the addition of recombinant hMAO-A (0.0075 mg protein/mL) or hMAO-B (0.015 mg protein/mL) and incubated for 20 min at 37 °C. At endpoint, the reactions were terminated with 80 µL sodium hydroxide (2N) and the fluorescence of 4-hydroxyquinoline, the oxidation product of kynuramine, was measured (λex = 310; λem = 400 nm)[33]. 4-Hydroxyquinoline was quantified with a calibration curve (0.047–1.56 μM) and the rate of 4-hydroxyquinoline formation was fitted to the one site competition model of the Prism 5 software package (GraphPad). From the resulting sigmoidal plots, the IC50 values were estimated. All enzyme reactions were carried out in triplicate and IC50 values are given as the mean ± standard deviation (SD).

[1] = Phosphomolybdenum assay (PhosphoMo), total antioxidant activity; conditions: concentration at which absorbance was 0.5
Experimental: The total antioxidant activity of the compounds was evaluated by phosphomolybdenum method according to Zengin et al.[35]. The sample solution (0.3 ml) was combined with 3 ml of reagent solution (0.6 M sulphuric acid, 28 mM sodium phosphate, and 4 mM ammonium molybdate) and the absorbance was recorded at 695 nm after 90 min incubation at 95 °C. The EC50, which is the effective concentration at which the absorbance was 0.5, was calculated for each compound and trolox, as a reference drug.

[2] = Cupric ion reducing activity (CUPRAC)
Experimental: The cupric ion reducing activity (CUPRAC) was determined according to the method of Zengin et al.[38]. The sample solution (0.5 ml) was added to a premixed reaction mixture containing CuCl2 (1 ml, 10 mM), neocuproine (1 ml, 7.5 mM), and NH4Ac buffer (1 ml, 1 M, pH 7.0). Similarly, a blank was prepared by adding the sample solution (0.5 ml) to a premixed reaction mixture (3 ml) without CuCl2. The absorbances of the sample and blank were subsequently recorded at 450 nm after 30 min incubation at room temperature. The absorbance of the blank was subtracted from that of the sample.
(§1) The FRAP (ferric reducing antioxidant power) assay was carried out as described by Zengin et al.[38]. The sample solution (0.1 ml) was added to the premixed FRAP reagent (2 ml) containing acetate buffer (0.3 M, pH 3.6), 2,4,6-tris(2-pyridyl)-s-triazine (10 mM) in 40 mM HCl, and ferric chloride (20 mM) in a ratio of 10/1/1 (v/v/v). The absorbance of the sample was subsequently recorded at 593 nm after 30 min incubation at room temperature. Both results were expressed as EC50 values, using trolox as a reference drug.

[3] = Metal chelating activity on ferrous ions; conditions: ferrozine
Experimental: Metal chelating activity on ferrous ions was evaluated by the method previously described. Briefly, the sample solution (2 ml) was added to FeCl2 solution (0.05 ml, 2 mM). The reaction was initiated by the addition of 5 mM ferrozine (0.2 ml). Similarly, a blank was prepared by adding the sample solution (2 ml) to FeCl2 solution (0.05 ml, 2 mM) and water (0.2 ml) without ferrozine. Then, the sample and blank absorbance were recorded at 562 nm after incubation for 10 min at room temperature. The absorbance of the blank was subtracted from that of the sample. EDTA was used as a positive control and this property was expressed as IC50 value for each compound.

[4] = FRAP (ferric reducing antioxidant power) assay
Experimental: as §1

[5] = ABTS radical cation scavenging activity
Experimental: (§2) The scavenging activity of the compounds on the ABTS radical cation [ABTS,2,2′-azino-bis(3-ethylbenzothiazoline)-6-sulphonic acid] was measured according to the method of Zengin et al.[37] with slight modification. Briefly, ABTS^+ was produced directly by reacting a 7 mM ABTS solution with 2.45 mM potassium persulphate and allowing the mixture to incubate for 12–16 h in the dark at room temperature. Prior to initiating the assay, the ABTS solution was diluted with methanol to an absorbance of 0.700 ± 0.02 at 734 nm. The sample solution (1 ml) was added to the ABTS^+ solution (2 ml) and mixed, and the sample absorbance was recorded at 734 nm after 30 min incubation at room temperature. The corresponding IC50 value, which is the effective concentration at which 50% of DPPH/ABTS radicals are scavenged, was calculated for each compound and trolox, as a reference drug.

[6] = DPPH radical scavenging activity
Experimental: The radical scavenging effect of the compounds using the 1,1-diphenyl-2-picrylhydrazyl (DPPH) radical was estimated according to Zengin et al.[36]. The sample solution (1 ml) was added to 4 ml of a 0.004% solution of DPPH in methanol. The sample absorbance was recorded at 517 nm after 30 min incubation at room temperature in the dark.
as §2

[7] = recombinant hMAO-B, kynuramine 50 μM, 20 min, 37 °C, read-out: IC50 hMAO-B

SMILES | melting point [°C] | IC50 (hMAO-B; [7]) [µM] | EC50 [1] [µM] | EC50 [2] [µM] | IC50 [3] [µM] | EC50 [4] [µM] | IC50 (hMAO-B) [µM] | IC50 [5] [µM] | IC50 [6] [µM] | Selectivity index (SI) for the MAO-B isoform (hMAO-B)
O=[N+]([O-])c1cccc(-c2csc(NN=Cc3ccco3)n2)c1 [Compound 1, 1-(Furan-2-ylmethylene)-2-(4-(3-nitrophenyl)thiazol-2-yl)hydrazine] | 213 to 215 | 0.095 |  |  |  |  |  |  |  | 
CC(=NNc1nc(-c2cccc([N+](=O)[O-])c2)cs1)c1ccsc1 [Compound 5, 1-(4-(3-Nitrophenyl)thiazol-2-yl)-2-(1-(thiophen-3-yl)ethylidene)hydrazine] |  |  | 1160 ± 30 | 480 ± 30 | > 5000 | 520 ± 20 | 0.0025 | 1050 ± 20 | 1210 ± 10 | 
CC(=NNc1nc(-c2cccc([N+](=O)[O-])c2)cs1)c1ccccc1 [Compound 11, 1-(4-(3-Nitrophenyl)thiazol-2-yl)-2-(1-phenylethylidene)hydrazine] | 261 to 263 |  | 1460 ± 80 | 550 ± 20 | > 5000 | 590 ± 10 | 0.0071 | 1040 ± 10 | 1280 ± 10 | 666
CC(=NNc1nc(-c2cccc([N+](=O)[O-])c2)cs1)c1ccccc1[N+](=O)[O-] [Compound 13, 1-(1-(2-Nitrophenyl)ethylidene)-2-(4-(3-nitrophenyl)thiazol-2-yl)hydrazine] |  | 0.0044 | 3100 ± 360 | 400 ± 10 | > 5000 | 450 ± 40 |  | 1040 ± 10 | 1590 ± 10 | 3477
CC(=O)c1ccc(C(C)=NNc2nc(-c3cccc([N+](=O)[O-])c3)cs2)cc1 [Compound 31, 1-(1-(4-Acetylphenyl)ethylidene)-2-(4-(3-nitrophenyl)thiazol-2-yl)hydrazine] | 205 to 207 | 42.1 |  |  |  |  |  |  |  | 5.4
